This test has as its system human peripheral-blood mononuclear cells. Briefly: Interferon γ production by peripheral-blood mononuclear cells with interleukin 2 (ELISA). In kind it is cell-based. Particulars: lipid antigen added with interleukin 2, supernatant ELISA. Here is the method: It was found out that the production amount of interferon γ increased by 2 folds or more when mycoplasma-mimic particles (GGPL-I, GGPL-III) were added as compared with administration of interleukin 2 alone using human peripheral-blood mononuclear cells. The mononuclear cells were separated from the peripheral blood of a healthy individual, and a sample in which interleukin 2 and the lipid antigen were added to the mononuclear cells, and a sample of the mononuclear cells without adding the lipid antigen were cultured, and supernatants thereof were recovered, and the amounts of interferon γ in the supernatants were measured with an enzyme antibody immune method (ELISA method).
Mononuclear cells were separated from the peripheral blood of a healthy individual. A sample in which interleukin 2 and mycoplasma-mimic particles (GGPL-I, or GGPL-III) were added to the mononuclear cells, and a sample of the mononuclear cells with no addition of the mycoplasma-mimic particles were cultured, and supernatants thereof were recovered, and the amounts of interferon γ in the supernatant were measured with an enzyme antibody immune method (ELISA method).
Mononuclear cells were separated from the peripheral blood of a healthy individual. […]

As to `CCCCCCCCCCCCCCCC(=O)OC[C@H](CO[C@H]1O[C@H](COP(=O)(O)OCC(N)COP(=O)(O)OCC[N+](C)(C)C)[C@@H](O)[C@H](O)[C@H]1O)OC(=O)CCCCCCCCCCCCCCC` (stereo partly shown) [GGPL-III], the “production amount of interferon γ in comparison with no addition of the lipid antigen” value was “remarkably increased”.

Values taken from patent US10232026B2, “Vaccine for mycoplasma infection” (NATIONAL INSTITUTE OF INFECTIOUS DISEASES, priority 2009, dated 2019).
